Measured values from ChEMBL document CHEMBL5357064 (ACS Med Chem Lett, 2024).

Tests used:
[1] = target: Small conductance calcium-activated potassium channel protein 3 (Homo sapiens, UniProt Q9UGI6); assay: Displacement of [125I]apamin from human SK3 expressed in HEK293 cells assessed as inhibition constant incubated for 1 hr by liquid scintillation counting analysis; format: cell-based
[2] = target: T1, Small conductance calcium-activated potassium channel protein 2 (Homo sapiens, UniProt Q9H2S1); assay: Displacement of [125I]apamin from human SK2 expressed in HEK293 cells assessed as inhibition constant incubated for 1 hr by liquid scintillation counting analysis; format: cell-based
T1 sequence (Q9H2S1 whole entry): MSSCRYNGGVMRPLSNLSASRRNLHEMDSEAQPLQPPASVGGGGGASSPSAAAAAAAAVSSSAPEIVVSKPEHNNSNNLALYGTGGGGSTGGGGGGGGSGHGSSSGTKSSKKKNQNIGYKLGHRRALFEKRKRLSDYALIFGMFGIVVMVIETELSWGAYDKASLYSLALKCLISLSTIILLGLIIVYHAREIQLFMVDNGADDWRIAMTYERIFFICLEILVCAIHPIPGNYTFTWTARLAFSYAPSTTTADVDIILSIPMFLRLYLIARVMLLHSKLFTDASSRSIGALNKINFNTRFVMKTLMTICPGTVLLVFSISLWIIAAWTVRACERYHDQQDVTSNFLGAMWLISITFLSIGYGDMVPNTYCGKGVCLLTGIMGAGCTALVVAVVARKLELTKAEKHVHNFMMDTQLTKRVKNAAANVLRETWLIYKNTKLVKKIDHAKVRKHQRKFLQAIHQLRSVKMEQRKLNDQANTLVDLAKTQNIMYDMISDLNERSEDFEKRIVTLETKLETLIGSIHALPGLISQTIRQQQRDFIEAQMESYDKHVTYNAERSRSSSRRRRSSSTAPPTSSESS

[3] = species on record: Homo sapiens; assay: Selectivity ratio of Ki for human SK3 to Ki for human SK2
[4] = target: T1, Small conductance calcium-activated potassium channel protein 2; assay: Displacement of [125I]apamin from SK2 (unknown origin) expressed in HEK293 cells assessed as inhibition constant incubated for 1 hr by liquid scintillation counting analysis; format: cell-based

Small conductance calcium-activated potassium channel protein 3, sequence (Q9UGI6 whole entry): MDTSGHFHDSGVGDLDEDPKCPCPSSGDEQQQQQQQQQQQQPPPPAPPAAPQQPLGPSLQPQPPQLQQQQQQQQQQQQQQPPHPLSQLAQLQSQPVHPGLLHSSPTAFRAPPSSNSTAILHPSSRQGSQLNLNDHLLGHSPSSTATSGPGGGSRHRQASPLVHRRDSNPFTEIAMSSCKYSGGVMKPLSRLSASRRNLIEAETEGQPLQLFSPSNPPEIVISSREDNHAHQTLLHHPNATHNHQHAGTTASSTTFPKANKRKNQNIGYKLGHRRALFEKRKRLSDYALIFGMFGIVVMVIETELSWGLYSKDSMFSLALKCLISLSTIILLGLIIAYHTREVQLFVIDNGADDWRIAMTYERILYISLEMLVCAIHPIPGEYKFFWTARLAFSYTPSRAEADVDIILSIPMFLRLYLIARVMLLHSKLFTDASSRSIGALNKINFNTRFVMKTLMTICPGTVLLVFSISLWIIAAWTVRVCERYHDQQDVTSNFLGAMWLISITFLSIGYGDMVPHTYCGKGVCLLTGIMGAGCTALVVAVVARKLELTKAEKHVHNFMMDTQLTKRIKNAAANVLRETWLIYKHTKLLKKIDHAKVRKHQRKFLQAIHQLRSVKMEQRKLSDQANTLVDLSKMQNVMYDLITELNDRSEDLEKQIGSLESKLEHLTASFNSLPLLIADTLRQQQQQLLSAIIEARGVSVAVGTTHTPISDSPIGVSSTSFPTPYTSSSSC

Row | Structure (SMILES) | Ki [1] [µM] | Ki [2] [µM] | Ratio Ki [3] | Ki [4] [µM]
1 | COc1cc2c3cc1Oc1c(OC)c(OC)cc4c1[C@@H](Cc1ccc(O)c(c1)Oc1ccc(cc1)C[C@@H]3N(C)CC2)N(C)CC4 [BERBAMINE] | 0.679 | 0.284 | 2.17 | 
2 | COc1cc2c(cc1OC)[C@H](CCC[C@H]1c3cc(OC)c(OC)cc3CCN1C)N(C)CC2 |  |  |  | 0.277
